# Experimental data reported in the supplement of paper PMC11061612.
# Assays:
# Experiment in all cases: combination Emax (second highest fraction inhibited in the dose matrix, 72 h); higher = more inhibition; extreme values may be limits of the assay
# 786-0 (Kidney Carcinoma) = tested on: 786-0 (Kidney Carcinoma)
# Procedure, shortened: (§1)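 Bliss excess equals the observed combination effect minus the expected value EA + EB − EA·EB, where EA and EB are the effects of each agent alone. Combination Emax is the second-highest inhibition within the matrix. Inhibition was scaled from CellTiter-Glo 2.0 luminescence, with 0 set by vehicle wells and 1 by blank wells, after 72 hours of two-drug dosing of cells plated in 1536-well plates.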
# [1] = tested on: AN3-CA (Endometrial Carcinoma)
# Procedure, shortened: as §1
# [2] = tested on: AsPC-1 (Pancreatic Carcinoma)
# Procedure, shortened: as §1
# [3] = tested on: BALL-1 (B-Lymphoblastic Leukemia)
# Procedure, shortened: as §1
# [4] = tested on: Becker (Low Grade Glioma)
# Procedure, shortened: as §1
# CHL-1 (Melanoma) = tested on: CHL-1 (Melanoma)
# Procedure, shortened: as §1
# [5] = tested on: Calu-6 (Non-Small Cell Lung Carcinoma)
# Procedure, shortened: as §1
# [6] = tested on: Caov-3 (Ovarian Carcinoma)
# Procedure, shortened: as §1
# [7] = tested on: EB-3 (Burkitt's Lymphoma)
# Procedure, shortened: as §1
# [8] = tested on: HSC-3 (Oral Cavity Carcinoma)
# Procedure, shortened: as §1
# [9] = tested on: KYSE-70 (Esophageal Squamous Cell Carcinoma)
# Procedure, shortened: as §1
# [10] = tested on: LOUCY (T-Lymphoblastic Leukemia)
# Procedure, shortened: as §1
# [11] = tested on: NCI-H1155 (Non-Small Cell Lung Carcinoma)
# Procedure, shortened: as §1
# [12] = tested on: NCI-H1563 (Lung Adenocarcinoma)
# Procedure, shortened: as §1
# [13] = tested on: NCI-H1755 (Lung Adenocarcinoma)
# Procedure, shortened: as §1
# [14] = tested on: OV-90 (Ovarian Carcinoma)
# Procedure, shortened: as §1
# [15] = tested on: RERF-LC-KJ (Lung Adenocarcinoma)
# Procedure, shortened: as §1
# [16] = tested on: RMG-I (Ovarian Carcinoma)
# Procedure, shortened: as §1
# RT4 (Bladder Carcinoma) = tested on: RT4 (Bladder Carcinoma)
# Procedure, shortened: as §1
# [17] = tested on: SJRH30 (Rhabdomyosarcoma)
# Procedure, shortened: as §1
SMILES,combination Emax (786-0 (Kidney Carcinoma)),combination Emax [1],combination Emax [2],combination Emax [3],combination Emax [4],combination Emax (CHL-1 (Melanoma)),combination Emax [5],combination Emax [6],combination Emax [7],combination Emax [8],combination Emax [9],combination Emax [10],combination Emax [11],combination Emax [12],combination Emax [13],combination Emax [14],combination Emax [15],combination Emax [16],combination Emax (RT4 (Bladder Carcinoma)),combination Emax [17]
"CN(CCO)CC[C@H](CSc1ccccc1)Nc1ccc(S(=O)(=O)NC(=O)c2ccc(N3CCC([C@@H](O)c4ccccc4-c4ccc(Cl)cc4)CC3)cc2)cc1S(=O)(=O)C(F)(F)F [AZD4320] + C[C@@H]1COCCN1C2=NC(=NC(=C2)C3(CC3)[S@](=N)(=O)C)C4=C5C=CNC5=NC=C4 [AZD6738] (first compound max 1 µM, 7x7, partner max 10 µM)",0.815,0.637,0.662,1,0.846,0.893,0.891,0.958,0.578,0.691,0.493,1,0.985,0.433,0.831,0.917,0.324,0.882,0.791,0.927
"Cc1c2c(nn1C)CSCc1cc(n(C)n1)CSc1cc(c3ccccc3c1)OCCCc1c(C(=O)O)n(C)c3c-2c(Cl)ccc13 [AZD5991] + C=CCn1c(=O)c2cnc(Nc3ccc(N4CCN(C)CC4)cc3)nc2n1-c1cccc(C(C)(C)O)n1 [AZD1775] (first compound max 1 µM, partner max 1 µM)",0.804,0.637,0.369,1,0.224,0.745,0.77,0.775,0.732,0.851,0.655,1,0.786,0.595,0.79,0.521,0.563,0.375,0.53,0.912
"CN(CCO)CC[C@H](CSc1ccccc1)Nc1ccc(S(=O)(=O)NC(=O)c2ccc(N3CCC([C@@H](O)c4ccccc4-c4ccc(Cl)cc4)CC3)cc2)cc1S(=O)(=O)C(F)(F)F [AZD4320] + Cn1cnc2c(F)c(Nc3ccc(Br)cc3Cl)c(C(=O)NOCCO)cc21 [Selumetinib] (first compound max 1 µM, 7x7, partner max 3 µM)",0.307,0.693,0.759,1,0.259,0.389,0.837,0.803,0.393,0.701,0.229,1,0.95,0.198,0.295,0.981,0.298,0.912,0.601,0.487
"CCc1c2c(nc3ccc(O)cc13)-c1cc3c(c(=O)n1C2)COC(=O)[C@]3(O)CC [SN-38] + CN(C)CCCOc1ccc(-c2ccc3ncc4c(c3c2)n(C2CCOCC2)c(=O)n4C)cn1 [AZD0156] (first compound max 0.3 µM, 7x7, partner max 1 µM)",0.884,0.325,0.135,1,0.847,0.567,0.762,0.977,0.748,0.855,0.25,0.759,0.962,0.441,0.752,0.457,0.673,0.446,0.819,0.359
"COc1cccc(OCCCN)c1-c1cc(Nc2cnc(C#N)cn2)n[nH]1 [Prexasertib] + CN(C)CCCOc1ccc(-c2ccc3ncc4c(c3c2)n(C2CCOCC2)c(=O)n4C)cn1 [AZD0156] (first compound max 1 µM, 7x7, partner max 1 µM)",0.861,0.81,0.444,0.999,0.711,0.814,0.745,0.806,0.838,0.654,0.618,1,0.885,0.352,0.936,0.532,0.349,0.698,0.304,0.94
